{"source": "paper PMC8800111", "about": "(The Journal of Biological Chemistry, 2021)", "assay_type_in_all_cases": "cell-based", "key": {"[1]": {"biological_target": "proteins of U3A human fibrosarcoma cells (4462 proteins detected) (Homo sapiens, UniProt O60341)", "settings": "protein KDM1A; soluble abundance after heat, U3A cells"}, "[2]": {"biological_target": "proteins of U3A human fibrosarcoma cells (4462 proteins detected) (Homo sapiens, UniProt O75116)", "settings": "protein ROCK2; U3A cells"}, "[3]": {"biological_target": "proteins of U3A human fibrosarcoma cells (4462 proteins detected) (Homo sapiens, UniProt O75151)", "settings": "protein PHF2; soluble abundance after heat, U3A cells"}, "[4]": {"biological_target": "proteins of U3A human fibrosarcoma cells (4462 proteins detected) (Homo sapiens, UniProt O75937)", "settings": "protein DNAJC8, U3A cells"}, "[5]": {"biological_target": "proteins of U3A human fibrosarcoma cells (4462 proteins detected) (Homo sapiens, UniProt O95297)", "sequence (O95297 36-269)": "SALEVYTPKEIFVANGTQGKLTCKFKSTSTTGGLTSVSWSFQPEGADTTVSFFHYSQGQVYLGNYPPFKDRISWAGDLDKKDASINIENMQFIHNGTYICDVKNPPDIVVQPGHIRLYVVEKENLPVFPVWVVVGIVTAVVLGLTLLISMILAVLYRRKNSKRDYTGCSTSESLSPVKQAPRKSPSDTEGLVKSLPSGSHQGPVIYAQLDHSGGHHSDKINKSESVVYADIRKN", "settings": "protein MPZL1; U3A, 10 μM, 2 h"}, "[6]": {"biological_target": "proteins of U3A human fibrosarcoma cells (4462 proteins detected) (Homo sapiens, UniProt P00568)", "sequence (P00568 whole entry)": "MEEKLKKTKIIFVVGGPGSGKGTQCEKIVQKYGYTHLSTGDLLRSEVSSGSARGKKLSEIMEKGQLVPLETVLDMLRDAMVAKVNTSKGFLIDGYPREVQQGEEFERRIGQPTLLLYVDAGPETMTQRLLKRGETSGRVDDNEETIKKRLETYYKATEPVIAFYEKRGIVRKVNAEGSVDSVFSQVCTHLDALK", "settings": "protein AK1, U3A cells"}, "[7]": {"biological_target": "proteins of U3A human fibrosarcoma cells (4462 proteins detected) (Homo sapiens, UniProt P13473)", "settings": "protein LAMP2; soluble abundance after heat, U3A cells"}, "[8]": {"biological_target": "proteins of U3A human fibrosarcoma cells (4462 proteins detected) (Homo sapiens, UniProt P13489)", "sequence (P13489 whole entry)": "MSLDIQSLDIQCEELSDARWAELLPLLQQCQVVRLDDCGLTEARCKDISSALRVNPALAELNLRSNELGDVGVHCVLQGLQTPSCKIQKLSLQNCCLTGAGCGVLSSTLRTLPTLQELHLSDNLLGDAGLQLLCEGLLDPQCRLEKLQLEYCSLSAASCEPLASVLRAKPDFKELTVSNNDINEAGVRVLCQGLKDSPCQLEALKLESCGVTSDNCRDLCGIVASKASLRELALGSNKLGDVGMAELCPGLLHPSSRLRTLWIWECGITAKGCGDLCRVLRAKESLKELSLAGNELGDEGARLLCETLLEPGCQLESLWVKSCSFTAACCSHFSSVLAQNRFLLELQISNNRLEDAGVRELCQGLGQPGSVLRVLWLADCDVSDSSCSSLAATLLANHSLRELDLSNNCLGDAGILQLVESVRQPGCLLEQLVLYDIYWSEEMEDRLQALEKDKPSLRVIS", "settings": "protein RNH1; U3A cells"}, "[9]": {"biological_target": "proteins of U3A human fibrosarcoma cells (4462 proteins detected) (Homo sapiens, UniProt P30050)", "settings": "protein RPL12; soluble abundance after heat, U3A cells"}, "[10]": {"biological_target": "proteins of U3A human fibrosarcoma cells (4462 proteins detected) (Homo sapiens, UniProt P51114)", "settings": "protein FXR1; U3A cells"}, "[11]": {"biological_target": "proteins of U3A human fibrosarcoma cells (4462 proteins detected) (Homo sapiens, UniProt P61289)", "sequence (P61289 whole entry)": "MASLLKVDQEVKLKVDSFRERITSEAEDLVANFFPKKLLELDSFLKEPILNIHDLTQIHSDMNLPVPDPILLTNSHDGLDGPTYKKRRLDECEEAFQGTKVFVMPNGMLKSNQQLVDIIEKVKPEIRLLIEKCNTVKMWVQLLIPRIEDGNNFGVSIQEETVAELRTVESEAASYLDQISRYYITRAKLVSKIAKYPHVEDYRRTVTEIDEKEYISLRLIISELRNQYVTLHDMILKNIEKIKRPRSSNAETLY", "settings": "protein PSME3; U3A cells"}, "[12]": {"biological_target": "proteins of U3A human fibrosarcoma cells (4462 proteins detected) (Homo sapiens, UniProt Q07020)", "settings": "protein RPL18; soluble abundance after heat, U3A cells"}, "[13]": {"biological_target": "proteins of U3A human fibrosarcoma cells (4462 proteins detected) (Homo sapiens, UniProt Q658Y4)", "sequence (Q658Y4 whole entry)": "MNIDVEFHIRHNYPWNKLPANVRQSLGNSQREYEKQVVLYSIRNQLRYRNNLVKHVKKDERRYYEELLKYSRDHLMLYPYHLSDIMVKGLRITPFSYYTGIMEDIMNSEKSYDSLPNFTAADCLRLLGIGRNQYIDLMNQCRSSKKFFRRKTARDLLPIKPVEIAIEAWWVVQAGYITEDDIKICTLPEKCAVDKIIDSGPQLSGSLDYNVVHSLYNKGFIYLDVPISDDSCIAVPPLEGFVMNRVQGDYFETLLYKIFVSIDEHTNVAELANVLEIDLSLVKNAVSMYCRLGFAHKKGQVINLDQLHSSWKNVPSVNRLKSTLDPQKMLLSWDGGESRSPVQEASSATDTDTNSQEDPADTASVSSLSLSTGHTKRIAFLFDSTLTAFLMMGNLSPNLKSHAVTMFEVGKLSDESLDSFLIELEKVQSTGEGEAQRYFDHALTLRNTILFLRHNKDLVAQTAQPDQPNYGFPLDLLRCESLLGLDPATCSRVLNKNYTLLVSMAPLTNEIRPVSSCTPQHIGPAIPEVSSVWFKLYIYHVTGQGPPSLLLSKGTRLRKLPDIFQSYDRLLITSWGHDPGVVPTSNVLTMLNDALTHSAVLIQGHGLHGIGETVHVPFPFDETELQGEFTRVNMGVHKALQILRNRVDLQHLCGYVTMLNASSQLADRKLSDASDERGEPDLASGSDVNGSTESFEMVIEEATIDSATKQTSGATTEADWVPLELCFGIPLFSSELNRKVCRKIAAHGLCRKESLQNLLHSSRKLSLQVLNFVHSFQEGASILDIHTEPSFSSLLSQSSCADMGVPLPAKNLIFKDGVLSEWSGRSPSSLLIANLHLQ", "settings": "protein FAM91A1; soluble abundance after heat, U3A cells"}, "[14]": {"biological_target": "proteins of U3A human fibrosarcoma cells (4462 proteins detected) (Homo sapiens, UniProt Q6YN16)", "settings": "protein HSDL2; U3A cells"}, "[15]": {"biological_target": "proteins of U3A human fibrosarcoma cells (4462 proteins detected) (Homo sapiens, UniProt Q8IUD2)", "settings": "protein ERC1, U3A cells"}, "[16]": {"biological_target": "proteins of U3A human fibrosarcoma cells (4462 proteins detected) (Homo sapiens, UniProt Q8IW35)", "settings": "protein CEP97; U3A, 10 μM, 2 h"}, "[17]": {"biological_target": "proteins of U3A human fibrosarcoma cells (4462 proteins detected) (Homo sapiens, UniProt Q8TA86)", "settings": "protein RP9, U3A cells"}, "[18]": {"biological_target": "proteins of U3A human fibrosarcoma cells (4462 proteins detected) (Homo sapiens, UniProt Q92922)", "sequence (Q92922 whole entry)": "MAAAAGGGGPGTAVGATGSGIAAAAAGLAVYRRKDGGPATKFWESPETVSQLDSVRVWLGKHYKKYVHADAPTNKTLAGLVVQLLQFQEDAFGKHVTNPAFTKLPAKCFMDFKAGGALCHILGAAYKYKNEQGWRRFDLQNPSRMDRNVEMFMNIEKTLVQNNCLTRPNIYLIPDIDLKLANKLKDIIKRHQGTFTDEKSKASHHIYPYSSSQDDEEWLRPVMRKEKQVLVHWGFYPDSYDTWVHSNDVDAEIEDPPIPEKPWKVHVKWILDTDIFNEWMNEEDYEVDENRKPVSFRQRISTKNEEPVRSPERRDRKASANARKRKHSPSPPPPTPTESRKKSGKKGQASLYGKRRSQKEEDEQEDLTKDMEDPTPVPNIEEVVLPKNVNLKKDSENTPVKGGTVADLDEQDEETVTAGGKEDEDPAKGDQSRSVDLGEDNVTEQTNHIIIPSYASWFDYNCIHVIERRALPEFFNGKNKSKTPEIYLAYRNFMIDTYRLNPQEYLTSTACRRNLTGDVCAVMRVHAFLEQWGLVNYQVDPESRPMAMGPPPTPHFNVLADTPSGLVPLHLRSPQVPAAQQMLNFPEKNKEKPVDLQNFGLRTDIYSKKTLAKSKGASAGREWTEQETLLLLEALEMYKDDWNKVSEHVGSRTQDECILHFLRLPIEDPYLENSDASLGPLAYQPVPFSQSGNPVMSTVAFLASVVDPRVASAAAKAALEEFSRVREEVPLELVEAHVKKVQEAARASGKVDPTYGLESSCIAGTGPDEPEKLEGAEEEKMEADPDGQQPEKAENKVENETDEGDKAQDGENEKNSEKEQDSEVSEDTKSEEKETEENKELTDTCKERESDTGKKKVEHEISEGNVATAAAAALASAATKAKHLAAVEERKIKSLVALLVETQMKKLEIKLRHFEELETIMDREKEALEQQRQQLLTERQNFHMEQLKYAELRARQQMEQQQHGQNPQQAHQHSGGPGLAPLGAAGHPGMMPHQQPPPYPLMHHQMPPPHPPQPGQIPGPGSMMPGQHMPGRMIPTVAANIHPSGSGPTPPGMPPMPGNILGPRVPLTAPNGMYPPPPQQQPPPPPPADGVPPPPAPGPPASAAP", "settings": "protein SMARCC1; soluble abundance after heat, U3A cells"}, "[19]": {"biological_target": "proteins of U3A human fibrosarcoma cells (4462 proteins detected) (Homo sapiens, UniProt Q96AC1)", "settings": "protein FERMT2; U3A cells"}, "[20]": {"biological_target": "proteins of U3A human fibrosarcoma cells (4462 proteins detected) (Homo sapiens, UniProt Q96CB9)", "settings": "protein NSUN4; U3A cells"}, "[21]": {"biological_target": "proteins of U3A human fibrosarcoma cells (4462 proteins detected) (Homo sapiens, UniProt Q96P48)", "settings": "protein ARAP1; soluble abundance after heat, U3A cells"}, "[22]": {"biological_target": "proteins of U3A human fibrosarcoma cells (4462 proteins detected) (Homo sapiens, UniProt Q9BVW5)", "sequence (Q9BVW5 whole entry)": "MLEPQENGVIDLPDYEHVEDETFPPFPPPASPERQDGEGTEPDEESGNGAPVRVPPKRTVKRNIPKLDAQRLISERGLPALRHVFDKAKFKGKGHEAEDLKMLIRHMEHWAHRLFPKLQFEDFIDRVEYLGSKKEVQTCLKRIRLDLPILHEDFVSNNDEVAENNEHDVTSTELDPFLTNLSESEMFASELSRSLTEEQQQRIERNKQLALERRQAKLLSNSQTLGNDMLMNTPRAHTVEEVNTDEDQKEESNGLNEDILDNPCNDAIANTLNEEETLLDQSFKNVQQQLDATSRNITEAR", "settings": "protein TIPIN, U3A cells"}, "[23]": {"biological_target": "proteins of U3A human fibrosarcoma cells (4462 proteins detected) (Homo sapiens, UniProt Q9H1D9)", "sequence (Q9H1D9 whole entry)": "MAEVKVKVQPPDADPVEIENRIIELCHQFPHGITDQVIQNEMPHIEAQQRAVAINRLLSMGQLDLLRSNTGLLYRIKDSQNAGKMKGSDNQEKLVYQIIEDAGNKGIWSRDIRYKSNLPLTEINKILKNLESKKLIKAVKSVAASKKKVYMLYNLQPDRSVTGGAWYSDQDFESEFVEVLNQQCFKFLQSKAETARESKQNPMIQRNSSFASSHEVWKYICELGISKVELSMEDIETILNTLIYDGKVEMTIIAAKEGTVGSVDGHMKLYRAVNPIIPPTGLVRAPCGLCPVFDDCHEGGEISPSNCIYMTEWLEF", "settings": "protein POLR3F; U3A cells"}, "[24]": {"biological_target": "proteins of U3A human fibrosarcoma cells (4462 proteins detected) (Homo sapiens, UniProt Q9HAT2)", "settings": "protein SIAE; U3A, 10 μM, 2 h"}, "[25]": {"biological_target": "proteins of U3A human fibrosarcoma cells (4462 proteins detected) (Homo sapiens, UniProt Q9NTZ6)", "sequence (Q9NTZ6 whole entry)": "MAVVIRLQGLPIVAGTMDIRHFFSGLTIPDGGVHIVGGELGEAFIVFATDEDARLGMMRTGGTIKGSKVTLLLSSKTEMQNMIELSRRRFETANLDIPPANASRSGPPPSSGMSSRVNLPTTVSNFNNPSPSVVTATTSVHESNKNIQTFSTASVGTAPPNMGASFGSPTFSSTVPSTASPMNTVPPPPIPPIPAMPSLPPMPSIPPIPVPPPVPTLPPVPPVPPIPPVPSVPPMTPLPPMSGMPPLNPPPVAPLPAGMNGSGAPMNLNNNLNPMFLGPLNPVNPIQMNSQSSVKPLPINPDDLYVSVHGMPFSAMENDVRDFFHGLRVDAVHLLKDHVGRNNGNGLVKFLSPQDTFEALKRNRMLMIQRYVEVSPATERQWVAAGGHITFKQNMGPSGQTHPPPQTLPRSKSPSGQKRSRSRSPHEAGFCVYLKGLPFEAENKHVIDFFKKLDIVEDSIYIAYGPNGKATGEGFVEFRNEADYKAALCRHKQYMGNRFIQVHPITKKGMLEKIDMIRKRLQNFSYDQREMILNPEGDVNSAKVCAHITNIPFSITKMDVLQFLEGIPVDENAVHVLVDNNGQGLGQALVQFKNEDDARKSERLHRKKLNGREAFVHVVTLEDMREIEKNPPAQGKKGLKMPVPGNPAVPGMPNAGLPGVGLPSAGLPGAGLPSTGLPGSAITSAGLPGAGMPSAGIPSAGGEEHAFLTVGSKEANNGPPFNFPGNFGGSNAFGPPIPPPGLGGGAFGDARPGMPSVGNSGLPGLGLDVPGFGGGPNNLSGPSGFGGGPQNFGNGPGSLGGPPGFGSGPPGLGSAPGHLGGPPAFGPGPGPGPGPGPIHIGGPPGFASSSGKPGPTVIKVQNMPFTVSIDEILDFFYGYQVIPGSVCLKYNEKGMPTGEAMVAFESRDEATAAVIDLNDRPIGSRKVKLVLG", "settings": "protein RBM12; soluble abundance after heat, U3A cells"}, "[26]": {"biological_target": "proteins of U3A human fibrosarcoma cells (4462 proteins detected) (Homo sapiens, UniProt Q9UFW8)", "sequence (Q9UFW8 whole entry)": "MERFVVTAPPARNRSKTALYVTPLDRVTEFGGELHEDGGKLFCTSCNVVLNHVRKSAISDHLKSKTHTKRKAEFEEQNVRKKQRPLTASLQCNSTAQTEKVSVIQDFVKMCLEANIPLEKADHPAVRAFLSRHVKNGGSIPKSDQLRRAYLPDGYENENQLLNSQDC", "settings": "protein CGGBP1; soluble abundance after heat, U3A cells"}, "[27]": {"biological_target": "proteins of U3A human fibrosarcoma cells (4462 proteins detected) (Homo sapiens, UniProt Q9UPN9)", "settings": "protein TRIM33; U3A cells"}, "[28]": {"biological_target": "proteins of U3A human fibrosarcoma cells (4462 proteins detected) (Homo sapiens, UniProt Q9Y281)", "sequence (Q9Y281 whole entry)": "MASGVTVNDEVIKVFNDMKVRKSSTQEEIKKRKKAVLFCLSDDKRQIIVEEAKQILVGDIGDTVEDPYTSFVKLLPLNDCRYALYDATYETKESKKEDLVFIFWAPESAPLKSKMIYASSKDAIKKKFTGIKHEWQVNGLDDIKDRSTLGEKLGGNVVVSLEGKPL", "settings": "protein CFL2, U3A cells"}, "[29]": {"biological_target": "proteins of U3A human fibrosarcoma cells (4462 proteins detected) (Homo sapiens, UniProt Q9Y3D3)", "settings": "protein MRPS16; U3A, 10 μM, 2 h"}}}
{"smiles": "CCc1nc(N)nc(N)c1-c1ccc(Cl)cc1", "note": "[pyrimethamine]", "values": [{"measurement": "Log2 (PYR/DMSO)", "setting": "[1]", "result": 0.14}, {"measurement": "Log2 (PYR/DMSO)", "setting": "[2]", "result": 0.17}, {"measurement": "Log2 (PYR/DMSO)", "setting": "[3]", "result": 0.14}, {"measurement": "Log2 (PYR/DMSO)", "setting": "[4]", "result": -0.05}, {"measurement": "Log2 (PYR/DMSO), MPZL1", "setting": "[5]", "result": 0.25}, {"measurement": "Log2 (PYR/DMSO)", "setting": "[6]", "result": -0.04}, {"measurement": "Log2 (PYR/DMSO)", "setting": "[7]", "result": 0.14}, {"measurement": "Log2 (PYR/DMSO)", "setting": "[8]", "result": 0.18}, {"measurement": "Log2 (PYR/DMSO)", "setting": "[9]", "result": 0.14}, {"measurement": "Log2 (PYR/DMSO)", "setting": "[10]", "result": 0.17}, {"measurement": "Log2 (PYR/DMSO)", "setting": "[11]", "result": 0.17}, {"measurement": "Log2 (PYR/DMSO)", "setting": "[12]", "result": 0.15}, {"measurement": "Log2 (PYR/DMSO)", "setting": "[13]", "result": 0.14}, {"measurement": "Log2 (PYR/DMSO)", "setting": "[14]", "result": 0.22}, {"measurement": "Log2 (PYR/DMSO)", "setting": "[15]", "result": -0.04}, {"measurement": "Log2 (PYR/DMSO), CEP97", "setting": "[16]", "result": -0.20}, {"measurement": "Log2 (PYR/DMSO)", "setting": "[17]", "result": -0.05}, {"measurement": "Log2 (PYR/DMSO)", "setting": "[18]", "result": 0.15}, {"measurement": "Log2 (PYR/DMSO)", "setting": "[19]", "result": 0.16}, {"measurement": "Log2 (PYR/DMSO)", "setting": "[20]", "result": 0.16}, {"measurement": "Log2 (PYR/DMSO)", "setting": "[21]", "result": 0.14}, {"measurement": "Log2 (PYR/DMSO)", "setting": "[22]", "result": -0.03}, {"measurement": "Log2 (PYR/DMSO)", "setting": "[23]", "result": 0.17}, {"measurement": "Log2 (PYR/DMSO), SIAE", "setting": "[24]", "result": 0.34}, {"measurement": "Log2 (PYR/DMSO)", "setting": "[25]", "result": 0.15}, {"measurement": "Log2 (PYR/DMSO)", "setting": "[26]", "result": 0.14}, {"measurement": "Log2 (PYR/DMSO)", "setting": "[27]", "result": 0.16}, {"measurement": "Log2 (PYR/DMSO)", "setting": "[28]", "result": -0.04}, {"measurement": "Log2 (PYR/DMSO), MRPS16", "setting": "[29]", "result": 0.24}]}
